Assay results as given in US9376442B2, “Methylpyrrolopyrimidinecarboxamides” (Takeda GmbH, priority 2009, dated 2016).

Target: T1, PDE5A1 (Homo sapiens, UniProt O76074)
T1 construct: from tissue; host or cells: human platelets from fresh donor blood (10,000 x g supernatant of sonicated lysate)
Assay: Inhibition of type 5 phosphodiesterase (PDE5) activity, modified SPA test with human platelet lysate
Format: biochemical
Conditions: 0.5 μM cGMP, read-out: PDE5A1 inhibitory values [measured as −log IC50 (mol/l)] (converted)
Summary of the method: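 Scintillation proximity assay with [3H]cGMP tracer at 0.5 μM total cGMP, stopped after 15 min with beads containing IBMX. PDE3 and PDE2 activities suppressed with motapizone (1 μM) and a PDE2 inhibitor (10 nM). Human platelet supernatant served as the enzyme, with compound preincubated 5 min at 37° C; IC50 values from concentration-effect curves.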

Row | IC50 [nM] | Compound
1 | < 1 | COc1cc(OCC2CC2)c(-c2ncnc3c(C(=O)N[C@H]4CC[C@@H](NC(C)=O)CC4)c(C)[nH]c23)cc1F [Example E138, N-(cis-4-Acetamidocyclohexyl)-4-[2-(cyclopropylmethoxy)-5-fluoro-4-methoxyphenyl]-6-methyl-5H-pyrrolo[3,2-d]pyrimidine-7-carboxamide]
2 | < 1 | COc1cc(-c2ncnc3c(C(=O)N[C@H]4CC[C@H](NC(=O)CO)CC4)c(C)[nH]c23)c(OCC2CC2)cc1F [Example F67, 4-[2-(Cyclopropylmethoxy)-4-fluoro-5-methoxyphenyl]-N-[trans-4-(glycoloylamino)cyclohexyl]-6-methyl-5H-pyrrolo[3,2-d]pyrimidine-7-carboxamide]
3 | 1 to 10 | COCC(=O)N1CC[C@@H](NC(=O)c2c(C)[nH]c3c(-c4cc(OC)ccc4OCC4CC4)ncnc23)[C@H](O)C1 (relative stereo) [Example E80, 4-[2-(Cyclopropylmethoxy)-5-methoxyphenyl]-N-[(3R*,4R*)-3-hydroxy-1-(methoxyacetyl)piperidin-4-yl]-6-methyl-5H-pyrrolo[3,2-d]pyrimidine-7-carboxamide]
4 | < 1 | COCC(=O)N[C@H]1CC[C@@H](NC(=O)c2c(C)[nH]c3c(-c4cc(C)c(F)cc4OCC4CC4)ncnc23)CC1 [Example E127, 4-[2-(Cyclopropylmethoxy)-4-fluoro-5-methylphenyl]-N-{cis-4-[(methoxyacetyl)amino]cyclohexyl}-6-methyl-5H-pyrrolo[3,2-d]pyrimidine-7-carboxamide]
5 | < 1 | CCOC(=O)N[C@H]1CC[C@@H](NC(=O)c2c(C)[nH]c3c(-c4c(OCC5CC5)ccc5c4OCO5)ncnc23)CC1 [Example E12, Ethyl {cis-4-[({4-[5-(cyclopropylmethoxy)-1,3-benzodioxol-4-yl]-6-methyl-5H-pyrrolo[3,2-d]pyrimidin-7-yl}carbonyl)amino]cyclohexyl}carbamate]
6 | < 1 | Cc1[nH]c2c(-c3c(OCC4CC4)ccc4c3OCO4)ncnc2c1C(=O)N[C@@H]1CCN(C(=O)[C@H](C)O)C1 [Example F8, 4-[5-(Cyclopropylmethoxy)-1,3-benzodioxol-4-yl]-N-{(3R)-1-[(2S)-2-hydroxypropanoyl]pyrrolidin-3-yl}-6-methyl-5H-pyrrolo[3,2-d]pyrimidine-7-carboxamide]
7 | < 1 | COc1cc(-c2ncnc3c(C(=O)N[C@@H]4CCN(C(C)=O)C4)c(C)[nH]c23)c(OCC2CC2)cc1F [Example E179, N-[(3R)-1-Acetylpyrrolidin-3-yl]-4-[2-(cyclopropylmethoxy)-4-fluoro-5-methoxyphenyl]-6-methyl-5H-pyrrolo[3,2-d]pyrimidine-7-carboxamide]
8 | < 1 | CCOC(=O)N1CCC(NC(=O)c2c(C)[nH]c3c(-c4c(OCC5CC5)ccc5c4OCO5)ncnc23)CC1 [Example E4, Ethyl 4-[({4-[5-(cyclopropylmethoxy)-1,3-benzodioxol-4-yl]-6-methyl-5H-pyrrolo[3,2-d]pyrimidin-7-yl}carbonyl)amino]piperidine-1-carboxylate]
9 | < 1 | CC(=O)N1CC[C@H](NC(=O)c2c(C)[nH]c3c(-c4ccc(F)cc4OCC4CC4)ncnc23)[C@@H](O)C1 (relative stereo) [Example E34, N-[(3S*,4S*)-1-acetyl-3-hydroxypiperidin-4-yl]-4-[2-(cyclopropylmethoxy)-4-fluorophenyl]-6-methyl-5H-pyrrolo[3,2-d]pyrimidine-7-carboxamide]
10 | 1 to 10 | COc1ccc(OCC2CC2)c(-c2ncnc3c(C(=O)N[C@@H]4CN(C(C)=O)C[C@H]4O)c(C)[nH]c23)c1 (relative stereo) [Example E192, N-[(3R*,4R*)-1-Acetyl-4-hydroxypyrrolidin-3-yl]-4-[2-(cyclopropylmethoxy)-5-methoxyphenyl]-6-methyl-5H-pyrrolo[3,2-d]pyrimidine-7-carboxamide]
11 | < 1 | COCC(=O)N1CC[C@@H](NC(=O)c2c(C)[nH]c3c(-c4ccc(OC)cc4OCC4CC4)ncnc23)C1 [Example E62, 4-[2-(Cyclopropylmethoxy)-4-methoxyphenyl]-N-[(3R)-1-(methoxyacetyl)pyrrolidin-3-yl]-6-methyl-5H-pyrrolo[3,2-d]pyrimidine-7-carboxamide]
12 | < 1 | CC(=O)N1CC[C@@H](NC(=O)c2c(C)[nH]c3c(-c4cc(C)c(F)cc4OCC4CC4)ncnc23)[C@H](O)C1 (relative stereo) [Example E128, N-[(3R*,4R*)-1-Acetyl-3-hydroxypiperidin-4-yl]-4-[2-(cyclopropylmethoxy)-4-fluoro-5-methylphenyl]-6-methyl-5H-pyrrolo[3,2-d]pyrimidine-7-carboxamide]

The next lines start with the compound.

Row | Compound | IC50 [nM]
13 | COc1ccc(OCC2CC2)c(-c2ncnc3c(C(=O)N[C@@H]4CCN(C(C)=O)C[C@H]4O)c(C)[nH]c23)c1 (relative stereo) [Example E78, N-[(3R*,4R*)-1-acetyl-3-hydroxypiperidin-4-yl]-4-[2-(cyclopropylmethoxy)-5-methoxyphenyl]-6-methyl-5H-pyrrolo[3,2-d]pyrimidine-7-carboxamide] | < 1
14 | COc1cc(-c2ncnc3c(C(=O)N[C@@H]4CCN(C(C)=O)C[C@H]4O)c(C)[nH]c23)c(OCC2CC2)cc1F (relative stereo) [Example E113, N-[(3R*,4R*)-1-Acetyl-3-hydroxypiperidin-4-yl]-4-[2-(cyclopropylmethoxy)-4-fluoro-5-methoxyphenyl]-6-methyl-5H-pyrrolo[3,2-d]pyrimidine-7-carboxamide] | < 1
15 | Cc1[nH]c2c(-c3c(OCC4CC4)ccc4c3OCO4)ncnc2c1C(=O)NC1CCN(C(=O)[C@H](C)O)CC1 [Example F2, 4-[5-(Cyclopropylmethoxy)-1,3-benzodioxol-4-yl]-N-{1-[(2S)-2-hydroxypropanoyl]piperidin-4-yl}-6-methyl-5H-pyrrolo[3,2-d]pyrimidine-7-carboxamide] | < 1
16 | CC(=O)N[C@H]1CC[C@@H](NC(=O)c2c(C)[nH]c3c(-c4cc(C(C)C)ccc4OCC4CC4)ncnc23)CC1 [Example E161, N-[cis-4-(Acetylamino)cyclohexyl]-4-[2-(cyclopropylmethoxy)-5-(propan-2-yl)phenyl]-6-methyl-5H-pyrrolo[3,2-d]pyrimidine-7-carboxamide] | < 1
17 | COc1cc(-c2ncnc3c(C(=O)N[C@@H]4CN(C(=O)CO)C[C@H]4O)c(C)[nH]c23)c(OCC2CC2)cc1F (relative stereo) [Example F113, 4-[2-(Cyclopropylmethoxy)-4-fluoro-5-methoxyphenyl]-N-[(3R*,4R*)-1-glycoloyl-4-hydroxypyrrolidin-3-yl]-6-methyl-5H-pyrrolo[3,2-d]pyrimidine-7-carboxamide] | < 1
18 | Cc1[nH]c2c(-c3ccc(F)cc3OCC3CC3)ncnc2c1C(=O)N[C@H]1CC[C@H](NC(=O)CO)CC1 [Example F13, 4-[2-(Cyclopropylmethoxy)-4-fluorophenyl]-N-[trans-4-(glycoloylamino)cyclohexyl]-6-methyl-5H-pyrrolo[3,2-d]pyrimidine-7-carboxamide] | < 1
19 | CC(=O)c1ccc(OCC2CC2)c(-c2ncnc3c(C(=O)NC4CCN(C(C)=O)CC4)c(C)[nH]c23)c1 [Example E163, 4-[5-Acetyl-2-(cyclopropylmethoxy)phenyl-]-N-(1-acetylpiperidin-4-yl)-6-methyl-5H-pyrrolo[3,2-d]pyrimidine-7-carboxamide] | < 1
20 | CCC(=O)N1CCC(NC(=O)c2c(C)[nH]c3c(-c4ccc(OC)cc4OCC4CC4)ncnc23)CC1 [Example E56, 4-[2-(Cyclopropylmethoxy)-4-methoxyphenyl]-6-methyl-N-(1-propionylpiperidin-4-yl)-5H-pyrrolo[3,2-d]pyrimidine-7-carboxamide] | < 1
21 | Cc1ccc(OCC2CC2)c(-c2nc(C)nc3c(C(=O)NC4CCN(C(=O)[C@H](C)O)CC4)c(C)[nH]c23)c1 [Example F107, 4-[2-(Cyclopropylmethoxy)-5-methylphenyl]-N-{1-[(2S)-2-hydroxypropanoyl]piperidin-4-yl}-2,6-dimethyl-5H-pyrrolo[3,2-d]pyrimidine-7-carboxamide] | < 1
22 | COCC(=O)N1CCC(NC(=O)c2c(C)[nH]c3c(-c4ccc(OC)cc4OCC4CC4)ncnc23)CC1 [Example E57, 4-[2-(Cyclopropylmethoxy)-4-methoxyphenyl]-N-[1-(methoxyacetyl)piperidin-4-yl]-6-methyl-5H-pyrrolo[3,2-d]pyrimidine-7-carboxamide] | < 1
23 | CC(=O)N1CC[C@@H](NC(=O)c2c(C)[nH]c3c(-c4c(OCC5CC5)ccc5c4OCO5)ncnc23)C1 [Example E13, N-[(3R)-1-acetylpyrrolidin-3-yl]-4-[5-(cyclopropylmethoxy)-1,3-benzodioxol-4-yl]-6-methyl-5H-pyrrolo[3,2-d]pyrimidine-7-carboxamide] | < 1
24 | COc1cc(OCC2CC2)c(-c2ncnc3c(C(=O)NC4CCN(C(C)=O)CC4)c(C)[nH]c23)cc1F [Example E131, N-(1-Acetylpiperidin-4-yl)-4-[2-(cyclopropylmethoxy)-5-fluoro-4-methoxyphenyl]-6-methyl-5H-pyrrolo[3,2-d]pyrimidine-7-carboxamide] | < 1
25 | COCC(=O)N1CC[C@@H](NC(=O)c2c(C)[nH]c3c(-c4cc(OC)ccc4OCC4CC4)ncnc23)C1 [Example E77, 4-[2-(Cyclopropylmethoxy)-5-methoxyphenyl]-N-[(3R)-1-(methoxyacetyl)pyrrolidin-3-yl]-6-methyl-5H-pyrrolo[3,2-d]pyrimidine-7-carboxamide] | < 1
26 | COc1cc(OCC2CC2)c(-c2ncnc3c(C(=O)N[C@H]4CC[C@H](NC(C)=O)CC4)c(C)[nH]c23)cc1F [Example E135, N-(trans-4-Acetamidocyclohexyl)-4-[2-(cyclopropylmethoxy)-5-fluoro-4-methoxyphenyl]-6-methyl-5H-pyrrolo[3,2-d]pyrimidine-7-carboxamide] | < 1
